In ChEMBL document CHEMBL1201861, “Genomics of Drug Sensitity in Cancer screening data, Wellcome Trust Sanger Institute”:

Columns and labels:
Assay in all cases: cells
TE-11 = assay type: functional, cell-based; settings: Homo sapiens
Description: SANGER: Inhibition of human TE-11 cell growth in a cell viability assay.

UACC-257 = assay type: functional, cell-based, Homo sapiens; settings: Homo sapiens, UACC-257
Description: SANGER: Inhibition of human UACC-257 cell growth in a cell viability assay.

LC-2-ad = assay type: functional, cell-based, Homo sapiens; settings: Homo sapiens, LC-2-ad
Description: SANGER: Inhibition of human LC-2-ad cell growth in a cell viability assay.

NCI-H526 = assay type: functional, cell-based, Homo sapiens; settings: Homo sapiens, NCI-H526
Description: SANGER: Inhibition of human NCI-H526 cell growth in a cell viability assay.

TE-5 = assay type: functional, cell-based, Homo sapiens; settings: Homo sapiens, TE-5
Description: SANGER: Inhibition of human TE-5 cell growth in a cell viability assay.

D-263MG = assay type: functional, cell-based, Homo sapiens; settings: Homo sapiens, D-263MG
Description: SANGER: Inhibition of human D-263MG cell growth in a cell viability assay.

DSH1 = assay type: functional, cell-based; settings: Homo sapiens
Description: SANGER: Inhibition of human DSH1 cell growth in a cell viability assay.

SW 962 = assay type: functional, cell-based, Homo sapiens; settings: Homo sapiens, SW 962
KNS-81-FD = assay type: functional, cell-based, Homo sapiens; settings: Homo sapiens, KNS-81-FD
Description: SANGER: Inhibition of human KNS-81-FD cell growth in a cell viability assay.

EW-1 = assay type: functional, cell-based, Homo sapiens; settings: Homo sapiens, EW-1
Description: SANGER: Inhibition of human EW-1 cell growth in a cell viability assay.

RKO = assay type: functional, cell-based, Homo sapiens; settings: Homo sapiens, RKO
TGBC1TKB = assay type: functional, cell-based, Homo sapiens; settings: Homo sapiens, TGBC1TKB
Description: SANGER: Inhibition of human TGBC1TKB cell growth in a cell viability assay.

KALS-1 = assay type: functional, cell-based, Homo sapiens; settings: Homo sapiens, KALS-1
Description: SANGER: Inhibition of human KALS-1 cell growth in a cell viability assay.

MZ1-PC = assay type: functional, cell-based, Homo sapiens; settings: Homo sapiens, MZ1-PC
U-266 = assay type: functional, cell-based, Homo sapiens; settings: Homo sapiens, U-266
SK-MEL-2 = assay type: functional, cell-based, Homo sapiens; settings: Homo sapiens, SK-MEL-2
Description: SANGER: Inhibition of human SK-MEL-2 cell growth in a cell viability assay.

KARPAS-299 = assay type: functional, cell-based, Homo sapiens; settings: Homo sapiens, KARPAS-299
Description: SANGER: Inhibition of human KARPAS-299 cell growth in a cell viability assay.

D-247MG = assay type: functional, cell-based; settings: Homo sapiens
Description: SANGER: Inhibition of human D-247MG cell growth in a cell viability assay.

NCI-H1581 = assay type: functional, cell-based, Homo sapiens; settings: Homo sapiens, NCI-H1581
Description: SANGER: Inhibition of human NCI-H1581 cell growth in a cell viability assay.

NCI-H1648 = assay type: functional, cell-based, Homo sapiens; settings: Homo sapiens, NCI-H1648
Description: SANGER: Inhibition of human NCI-H1648 cell growth in a cell viability assay.

KY821 = assay type: functional, cell-based, Homo sapiens; settings: Homo sapiens, KY821
Description: SANGER: Inhibition of human KY821 cell growth in a cell viability assay.

MLMA = assay type: functional, cell-based, Homo sapiens; settings: Homo sapiens, MLMA
Description: SANGER: Inhibition of human MLMA cell growth in a cell viability assay.

HT = assay type: functional, cell-based, Homo sapiens; settings: Homo sapiens, HT
CGTH-W-1 = assay type: functional, cell-based, Homo sapiens; settings: Homo sapiens, CGTH-W-1
Description: SANGER: Inhibition of human CGTH-W-1 cell growth in a cell viability assay.

NCI-H1770 = assay type: functional, cell-based, Homo sapiens; settings: Homo sapiens, NCI-H1770
Description: SANGER: Inhibition of human NCI-H1770 cell growth in a cell viability assay.

HCE-4 = assay type: functional, cell-based; settings: Homo sapiens
Description: SANGER: Inhibition of human HCE-4 cell growth in a cell viability assay.

NCI-H1092 = assay type: functional, cell-based, Homo sapiens; settings: Homo sapiens, NCI-H1092
Description: SANGER: Inhibition of human NCI-H1092 cell growth in a cell viability assay.

BB65-RCC = assay type: functional, cell-based, Homo sapiens; settings: Homo sapiens, BB65-RCC
Description: SANGER: Inhibition of human BB65-RCC cell growth in a cell viability assay.

RS4-11 = assay type: functional, cell-based, Homo sapiens; settings: Homo sapiens, RS4-11
Description: SANGER: Inhibition of human RS4-11 cell growth in a cell viability assay.

ES3 = assay type: functional, cell-based, Homo sapiens; settings: Homo sapiens, ES3
Description: SANGER: Inhibition of human ES3 cell growth in a cell viability assay.

EW-3 = assay type: functional, cell-based, Homo sapiens; settings: Homo sapiens, EW-3
Description: SANGER: Inhibition of human EW-3 cell growth in a cell viability assay.

LU-134-A = assay type: functional, cell-based, Homo sapiens; settings: Homo sapiens, LU-134-A
Description: SANGER: Inhibition of human LU-134-A cell growth in a cell viability assay.

ES1 = assay type: functional, cell-based, Homo sapiens; settings: Homo sapiens, ES1
NOS-1 = assay type: functional, cell-based, Homo sapiens; settings: Homo sapiens, NOS-1
Description: SANGER: Inhibition of human NOS-1 cell growth in a cell viability assay.

LS-411N = assay type: functional, cell-based, Homo sapiens; settings: Homo sapiens, LS-411N
MN-60 = assay type: functional, cell-based, Homo sapiens; settings: Homo sapiens, MN-60
Description: SANGER: Inhibition of human MN-60 cell growth in a cell viability assay.

OMC-1 = assay type: functional, cell-based, Homo sapiens; settings: Homo sapiens, OMC-1
Description: SANGER: Inhibition of human OMC-1 cell growth in a cell viability assay.

OCI-AML2 = assay type: functional, cell-based, Homo sapiens; settings: Homo sapiens, OCI-AML2
KP-N-YS = assay type: functional, cell-based, Homo sapiens; settings: Homo sapiens, KP-N-YS
Description: SANGER: Inhibition of human KP-N-YS cell growth in a cell viability assay.

SNU1 = assay type: functional, cell-based, Homo sapiens; settings: Homo sapiens, SNU1
Description: SANGER: Inhibition of human NCI-SNU-1 cell growth in a cell viability assay.

J-RT3-T3-5 = assay type: functional, cell-based, Homo sapiens; settings: Homo sapiens, J-RT3-T3-5
KU812 cell line = assay type: functional, cell-based, Homo sapiens; settings: Homo sapiens, KU812
Description: SANGER: Inhibition of human KU812 cell growth in a cell viability assay.

KG-1 = assay type: functional, cell-based, Homo sapiens; settings: Homo sapiens, KG-1
Description: SANGER: Inhibition of human KG-1 cell growth in a cell viability assay.

A253 cell line = assay type: functional, cell-based, Homo sapiens; settings: Homo sapiens, A253
Description: SANGER: Inhibition of human A253 cell growth in a cell viability assay.

PSN1 = assay type: functional, cell-based, Homo sapiens; settings: Homo sapiens, PSN1
Description: SANGER: Inhibition of human PSN1 cell growth in a cell viability assay.

KM12 = assay type: functional, cell-based, Homo sapiens; settings: Homo sapiens, KM12
Description: SANGER: Inhibition of human KM12 cell growth in a cell viability assay.

JVM-3 = assay type: functional, cell-based, Homo sapiens; settings: Homo sapiens, JVM-3
Description: SANGER: Inhibition of human JVM-3 cell growth in a cell viability assay.

BT-474 = assay type: functional, cell-based, Homo sapiens; settings: Homo sapiens, BT-474
Description: SANGER: Inhibition of human BT-474 cell growth in a cell viability assay.

NCI-H446 = assay type: functional, cell-based, Homo sapiens; settings: Homo sapiens, NCI-H446
Description: SANGER: Inhibition of human NCI-H446 cell growth in a cell viability assay.

COLO-824 = assay type: functional, cell-based, Homo sapiens; settings: Homo sapiens, COLO-824
Description: SANGER: Inhibition of human COLO-824 cell growth in a cell viability assay.

## O=C1NC(=O)c2c1c(-c1ccccc1Cl)cc1[nH]c3ccc(O)cc3c21
TE-11
  IC50: > 2 µM
UACC-257
  IC50: > 2 µM
LC-2-ad
  IC50: > 2 µM
NCI-H526
  IC50: > 2 µM
TE-5
  IC50: > 2 µM
D-263MG
  IC50: > 2 µM
DSH1
  IC50: > 2 µM
SW 962
  IC50: > 2 µM
KNS-81-FD
  IC50: > 2 µM
EW-1
  IC50: 0.338 µM
RKO
  IC50: > 2 µM
TGBC1TKB
  IC50: > 2 µM
KALS-1; read-out: IC50
  IC50: 0.834 µM
MZ1-PC
  IC50: > 2 µM
U-266
  IC50: > 2 µM
SK-MEL-2
  IC50: > 2 µM
KARPAS-299
  IC50: > 2 µM
D-247MG
  IC50: > 2 µM
NCI-H1581
  IC50: > 2 µM
NCI-H1648
  IC50: > 2 µM
KY821
  IC50: > 2 µM
MLMA
  IC50: 0.541 µM
HT
  IC50: > 2 µM
CGTH-W-1
  IC50: > 2 µM
NCI-H1770
  IC50: > 2 µM
HCE-4
  IC50: > 2 µM
NCI-H1092
  IC50: > 2 µM
BB65-RCC
  IC50: 1.42 µM
RS4-11
  IC50: 0.898 µM
ES3
  IC50: > 2 µM
EW-3
  IC50: 0.947 µM
LU-134-A
  IC50: 0.917 µM
ES1
  IC50: > 2 µM
NOS-1
  IC50: > 2 µM
LS-411N
  IC50: > 2 µM
MN-60
  IC50: 1.2 µM
OMC-1
  IC50: > 2 µM
OCI-AML2
  IC50: > 2 µM
KP-N-YS
  IC50: > 2 µM
SNU1
  IC50: 0.898 µM
J-RT3-T3-5
  IC50: 1.58 µM
KU812 cell line
  IC50: > 2 µM
KG-1
  IC50: 0.862 µM
A253 cell line
  IC50: > 2 µM
PSN1
  IC50: > 2 µM
KM12
  IC50: > 2 µM
JVM-3
  IC50: 1.43 µM
BT-474
  IC50: > 2 µM
NCI-H446
  IC50: > 2 µM
COLO-824
  IC50: > 2 µM

## CC1(C)CCC(c2ccc(Cl)cc2)=C(CN2CCN(c3ccc(C(=O)NS(=O)(=O)c4ccc(N[C@H](CCN5CCOCC5)CSc5ccccc5)c(S(=O)(=O)C(F)(F)F)c4)cc3)CC2)C1 [NAVITOCLAX]
TE-11
  IC50: > 2 µM
UACC-257
  IC50: > 2 µM
LC-2-ad
  IC50: > 2 µM
NCI-H526
  IC50: > 2 µM
TE-5
  IC50: > 2 µM
D-263MG
  IC50: > 2 µM
DSH1
  IC50: > 2 µM
SW 962
  IC50: > 2 µM
KNS-81-FD
  IC50: 0.44 µM
EW-1
  IC50: > 2 µM
RKO
  IC50: > 2 µM
TGBC1TKB
  IC50: 1.14 µM
KALS-1; read-out: IC50
  IC50: > 2 µM
MZ1-PC
  IC50: > 2 µM
U-266
  IC50: > 2 µM
SK-MEL-2
  IC50: > 2 µM
KARPAS-299
  IC50: > 2 µM
D-247MG
  IC50: 1.51 µM
NCI-H1581
  IC50: > 2 µM
NCI-H1648
  IC50: 1.71 µM
KY821
  IC50: 0.0297 µM
MLMA
  IC50: 1.97 µM
HT
  IC50: > 2 µM
CGTH-W-1
  IC50: > 2 µM
NCI-H1770
  IC50: > 2 µM
HCE-4
  IC50: > 2 µM
NCI-H1092
  IC50: 0.103 µM
BB65-RCC
  IC50: > 2 µM
RS4-11
  IC50: 0.0259 µM
ES3
  IC50: > 2 µM
EW-3
  IC50: 0.0805 µM
LU-134-A
  IC50: 0.187 µM
ES1
  IC50: > 2 µM
NOS-1
  IC50: > 2 µM
LS-411N
  IC50: > 2 µM
MN-60
  IC50: > 2 µM
OMC-1
  IC50: 1.86 µM
OCI-AML2
  IC50: > 2 µM
KP-N-YS
  IC50: 1.16 µM
SNU1
  IC50: 1.37 µM
J-RT3-T3-5
  IC50: 0.608 µM
KU812 cell line
  IC50: > 2 µM
KG-1
  IC50: 0.0449 µM
A253 cell line
  IC50: > 2 µM
PSN1
  IC50: > 2 µM
KM12
  IC50: > 2 µM
JVM-3
  IC50: > 2 µM
BT-474
  IC50: > 2 µM
NCI-H446
  IC50: > 2 µM
COLO-824
  IC50: 1.02 µM

## Cc1ccc(NC(=O)c2ccc(CN3CCN(C)CC3)cc2)cc1Nc1nccc(-c2cccnc2)n1 [IMATINIB]
TE-11
  IC50: > 2 µM
LC-2-ad
  IC50: > 2 µM
NCI-H526
  IC50: > 2 µM
TE-5
  IC50: > 2 µM
D-263MG
  IC50: > 2 µM
DSH1
  IC50: > 2 µM
SW 962
  IC50: > 2 µM
KNS-81-FD
  IC50: > 2 µM
EW-1
  IC50: > 2 µM
RKO
  IC50: > 2 µM
TGBC1TKB
  IC50: > 2 µM
KALS-1
  IC50: > 2 µM
MZ1-PC
  IC50: > 2 µM
U-266
  IC50: > 2 µM
SK-MEL-2
  IC50: > 2 µM
KARPAS-299
  IC50: > 2 µM
D-247MG
  IC50: > 2 µM
NCI-H1581
  IC50: > 2 µM
NCI-H1648
  IC50: > 2 µM
KY821
  IC50: > 2 µM
MLMA
  IC50: > 2 µM
HT
  IC50: > 2 µM
CGTH-W-1
  IC50: 0.384 µM
NCI-H1770
  IC50: > 2 µM
HCE-4
  IC50: > 2 µM
NCI-H1092
  IC50: > 2 µM
BB65-RCC
  IC50: > 2 µM
RS4-11
  IC50: > 2 µM
ES3
  IC50: > 2 µM
EW-3
  IC50: > 2 µM
LU-134-A
  IC50: > 2 µM
ES1
  IC50: > 2 µM
NOS-1
  IC50: 1.65 µM
LS-411N
  IC50: > 2 µM
MN-60
  IC50: > 2 µM
OMC-1
  IC50: > 2 µM
OCI-AML2
  IC50: > 2 µM
KP-N-YS
  IC50: > 2 µM
SNU1
  IC50: > 2 µM
J-RT3-T3-5
  IC50: > 2 µM
KU812 cell line
  IC50: > 2 µM
KG-1
  IC50: > 2 µM
A253 cell line
  IC50: > 2 µM
PSN1
  IC50: > 2 µM
KM12
  IC50: > 2 µM
JVM-3
  IC50: > 2 µM
BT-474
  IC50: > 2 µM
NCI-H446
  IC50: > 2 µM
COLO-824
  IC50: > 2 µM
